Results on three compounds are retold here after US9675663B2, “TUSC2 therapies” (Board of Regents, The University of Texas System, priority 2011, dated 2017).

For one experiment, the system named is HCC366 and H322 cells. Briefly: Effect of AMPK inhibitor on FUS1/MK2206-induced cell death. It counts as cell-based, human. As to conditions: AMPK inhibitor present. The procedure: FIG. 23: The effect of AMPK inhibitor on FUS1/MK2206-induced cell death. Cell survival was assessed in HCC366 and H322 cells treated with FUS1 nanoparticles and various concentrations of MK2206 in the presence or absence of AMPK inhibitor Compound C. Graphs show relative cell survival (y-axis) at various concentrations of MK2206 (x-axis) with and without AMPK inhibitor as indicated.
(§1) To better determine the mechanism for synergistic FUS1/MK2206 effect, treated cells were subjected to an immunoblots to assess the phosphorylation status of cell signaling molecules. […] Thus, FUS1-increased sensitivity to MK2206 is associated with the down-regulation of AKT and mTOR phosphorylation and up-regulation of AMPK phosphorylation. In view of these studies a proposed FUS/MK2206 signaling pathway is provided as FIG. 25.

For another experiment, the system named is H1299 cells. As to the kind of experiment: Colony formation assay. In kind it is cell-based, human. On the set-up: Colony formation, groups 1-3 (replicates) / Colony formation, average: unit not given here. As to conditions: for Colony formation normalized on EV: EV + PBS = 100%; for Colony formation, average / Colony formation, groups 1-3 (replicates): number after + = μg Erlotinib; for Colony formation normalized on pc301: pc301PBS = 100%. The method, then: FIG. 6: Fus1 and Erlotinib combined treatment effect on colony formation of H1299 cells. […] “EV” indicates empty vector; Fus1 indicates a vector containing Fus1; numerical values following “erlo” indicate μg of Erlotinib; PBS indicates Phosphate-Buffer Saline control. […]
(§2) To assess cooperative effects of tumor growth data between FUS-1 (FUST) and Erlotinib (Erlo) a Bayesian Bootstrapping analysis approach was used. The Pr(min(μF, μE)<μC|(data) was calculated i.e., the posterior probability that the minimum of the two posterior mean colony formation for FUS-1 alone, μF, or Erlotinib alone, μE, […] the mean posterior colony formation for the combination μC. This probability calculates the likelihood that average colony formation in the combination arm will be less than the minimum of the two single agent arms. Cooperative effects are shown if this posterior probability is large. Thus, the probability of cooperative effect ranges from 0.0 to 1.0 where 0 means no chance of a true cooperative effect given the data observed while 1 means 100% certainty of a cooperative effect given the data observed. The Statistical software S-PLUS 8.0 were used for all the analyses.

The subject of the next experiment is A549 cells. As to the kind of experiment: Colony formation assay. It counts as cell-based, human. The conditions noted are these: for Colony formation normalized on EV: EV + PBS = 100%; for Colony formation, average / Colony formation, groups 1-3 (replicates): number after + = μg Erlotinib; for Colony formation normalized on pc301: pc301PBS = 100%. The procedure:
FIG. 8: Fus1 and Erlotinib combined treatment effect on colony formation of A549 cells. […] “EV” indicates empty vector; Fus1 indicates a vector containing Fus1; numerical values following “+” indicate μg of Erlotinib; PBS indicates Phosphate-Buffer Saline control.
as §2

The test system of a further experiment is H460 cells. Briefly: Colony formation assay. The conditions noted are these: for Colony formation normalized on EV: EV + PBS = 100%; for Colony formation, average / Colony formation, groups 1-3 (replicates): number after + = μg Erlotinib. In kind it is cell-based, human. The method, then:
FIG. 9: Fus1 and Erlotinib combined treatment effect on colony formation of H460 cells. […] “EV” indicates empty vector; Fus1 indicates a vector containing Fus1; numerical values following “+” indicate μg of Erlotinib; PBS indicates Phosphate-Buffer Saline control.
as §2

The next experiment relates to H322 cells. Briefly: Colony formation assay. In kind it is cell-based, human. On the set-up: Colony formation, groups 1-3 (replicates) / Colony formation, average: unit not given here. The conditions noted are these: for Colony formation normalized on EV: EV + PBS = 100%; for Colony formation, average / Colony formation, groups 1-3 (replicates): number after + = μg Erlotinib; for Colony formation normalized on pc301: pc301PBS = 100%. The procedure:
FIG. 7: Fus1 and Erlotinib combined treatment effect on colony formation of H322 cells. […] “EV” indicates empty vector; Fus1 indicates a vector containing Fus1; numerical values following “+” indicate μg of Erlotinib; PBS indicates Phosphate-Buffer Saline control. […]
as §2

In experiment [1] the test system is phosphorylated AMPK, AKT, mTOR and S6K. As to the kind of experiment: Immunoblot of phosphorylated signaling proteins in FUS1/MK2206-treated cell lines. The conditions noted are these: addition of MK2206; HCC366 or H322 cells. It counts as cell-based, human. The method, then: FIG. 21: Immunoblot of p-AKT, p-AMPK and p-mTOR in FUS1/MK2206-treated cell lines. Phosphorylation specific antibodies were used to assess expression of phosphorylated AMPK, AKT, mTOR and S6K in HCC366 or H322 cells. Cells were treated with empty vector (EV); FUS1 nanoparticles (FUS1); MK2206; empty vector+MK2206 (EV+MK); or FUS1 nanoparticles+MK2206 (FUS1+MK) prior to assessment for phosphorylated protein expression. Immunoblot of β-actin was used as a loading control.
as §1

The test system of the next experiment is H322. As to the kind of experiment: IC50 of MK2206 alone or with FUS1-nanoparticles. It counts as cell-based. As to conditions: Homo sapiens, NCI-H322. The procedure: (§3) FIG. 17: Single drug treatment of MK2206 on lung cancer cells. […] Cell lines that were further analyzed are indicated by arrows.
(§4) FIG. 18: FUS1/MK2206-induced cell death in lung cancer cell lines. Graphs show the relative survival rates for the indicated cancer cells (y-axis) when contacted with empty vector (EV) or FUS1 nanoparticles in the presence of increasing concentrations of MK2206 (x-axis).
(§5) Single drug treatment with AKT inhibitor MK2206 was also assessed in a wide range of lung cancer cell lines. Cell lines indicated by arrows (H322, A549, H2887 and […]) were subjected to further analysis. First, each of the cell lines was treated with FUS1 nanoparticles or empty vector at increasing concentrations of MK2206. […] The effect of the combined therapy was especially evident in H2887, H322 and HCC366 cells. Next, the ability of combined FUS1/MK2206 treatment to inhibit colony formation was studied in the cell lines. […] Thus, FUS1 treatment is able to sensitize cancer cells to the effects of kinase inhibitors such as the AKT inhibitor MK2206. This effect was quantified relative to each studied cell line below in Table 13.

The test system of a further experiment is H2887. As to the kind of experiment: IC50 of MK2206 alone or with FUS1-nanoparticles. In kind it is cell-based. As to conditions: Homo sapiens, NCI-H2887. The procedure:
as §3, §4, §5

The subject of the next experiment is A549. As to the kind of experiment: IC50 of MK2206 alone or with FUS1-nanoparticles. In kind it is cell-based. The conditions noted are these: Homo sapiens. The method, then: as §3, §4, §5
Another experiment concerns HCC366. As to the kind of experiment: IC50 of MK2206 alone or with FUS1-nanoparticles. It counts as cell-based. The conditions noted are these: Homo sapiens. The procedure: as §3, §4, §5

Several values for one entry are separate records, joined by “and”; a condition that tells them apart may be missing. Equal values may be shown once.

For the compound `c1cc(-c2cnn3cc(-c4ccc(OCCN5CCCCC5)cc4)cnc23)ccn1` [Compound C], the “protection from FUS1/MK2206-mediated killing” value in the experiment with HCC366 and H322 cells is reported as “partially protect cancer cells from FUS1/MK2206-mediated killing”.

Consider `C#Cc1cccc(Nc2ncnc3cc(OCCOC)c(OCCOC)cc23)c1` [Erlotinib], for which the “Colony formation normalized on EV” value is 97% with H1299 cells (listed as EV + 1); 47% with H1299 cells (listed as EV + 2.3); 93% in the experiment on A549 cells (listed as EV + 1); 71% with A549 cells (listed as EV + 2.3); 64% in the experiment on H460 cells (listed as EV + 1); 40% in the experiment with H460 cells (listed as EV + 2.3). The entries for the “Colony formation normalized on EV” value in the experiment on H322 cells (listed as EV + 1) and in the experiment on H322 cells (listed as EV + 2.3) were 78% and 37%, respectively. The “Colony formation, average” value in the experiment on H1299 cells (listed as EV + 1) is 16866; with H1299 cells (listed as EV + 2.3) it was 8142; with H1299 cells (listed as pc301 + 1) it was 29960; in the experiment with H1299 cells (listed as pc301 + 2.3), 21288; with A549 cells (listed as EV + 1) it was 2652; in the experiment on A549 cells (listed as EV + 2.3) it was 2044. Further, the “Colony formation, average” value was 3203 with A549 cells (listed as pc301 + 1); 1693 in the experiment on A549 cells (listed as pc301 + 2.3); 1360 in the experiment on H460 cells (listed as EV + 1); 859 with H460 cells (listed as EV + 2.3); 38570 in the experiment on H322 cells (listed as EV + 1); 18091 in the experiment with H322 cells (listed as EV + 2.3). In addition, the “Colony formation, average” value in the experiment on H322 cells (listed as pc301 + 1) is recorded as 39180; in the experiment on H322 cells (listed as pc301 + 2.3) it was 28211. The “Colony formation, groups 1-3 (replicates)” value in the experiment with H1299 cells (listed as EV + 1) is 18287.0 and 15301.0 and 17010.0; in the experiment with H1299 cells (listed as EV + 2.3), 9216.0 and 8082.0 and 7128.0; in the experiment with H1299 cells (listed as pc301 + 1), 31957.0 and 25107.0 and 32817.0; with H1299 cells (listed as pc301 + 2.3) it was 24425.0 and 18192.0 and 21246.0; in the experiment with A549 cells (listed as EV + 1) it was 3083 and 2538 and 2334; in the experiment on A549 cells (listed as EV + 2.3), 2484 and 1910 and 1738. For the same compound, the “Colony formation, groups 1-3 (replicates)” value in the experiment with A549 cells (listed as pc301 + 1) was 3779 and 2436 and 3393; with A549 cells (listed as pc301 + 2.3), 1625 and 1803 and 1651; in the experiment with H460 cells (listed as EV + 1), 1216 and 1393 and 1470; in the experiment on H460 cells (listed as EV + 2.3), 750 and 968 and 858; in the experiment with H322 cells (listed as EV + 1) it was 43621 and 36971 and 35119; with H322 cells (listed as EV + 2.3), 20293 and 16469 and 17511. For the same compound, the “Colony formation, groups 1-3 (replicates)” value in the experiment on H322 cells (listed as pc301 + 1) is 44761 and 37701 and 35079; with H322 cells (listed as pc301 + 2.3), 28610 and 28943 and 27080. Also, the “Colony formation normalized on pc301” value in the experiment with H1299 cells (listed as EV + 1) was determined as 40%; in the experiment with H1299 cells (listed as EV + 2.3), 19%; in the experiment with H1299 cells (listed as pc301 + 1), 71%; in the experiment on H1299 cells (listed as pc301 + 2.3) it was 50%; in the experiment with A549 cells (listed as EV + 1), 47%; with A549 cells (listed as EV + 2.3), 36%. In addition, the “Colony formation normalized on pc301” value with A549 cells (listed as pc301 + 1) came out at 57%; in the experiment with A549 cells (listed as pc301 + 2.3), 30%; in the experiment on H322 cells (listed as EV + 1), 65%; with H322 cells (listed as EV + 2.3) it was 30%; in the experiment on H322 cells (listed as pc301 + 1), 66%; in the experiment on H322 cells (listed as pc301 + 2.3) it was 47%.

One may read the IC50 as the concentration that gives 50% inhibition. For `NC1(c2ccc(-c3nc4ccn5c(=O)[nH]nc5c4cc3-c3ccccc3)cc2)CCC1` [MK2206], the “phosphorylated AKT levels” value in experiment [1] was “significantly reduced phosphorylated AKT levels”. The IC50 in the experiment with H322 amounted to 20.4 µM; in the experiment on H2887, 16.5 µM; in the experiment with A549, 2.86 µM; with HCC366, 18.4 µM.
